The values that follow come from US7390829B2, “Alpha-2 adrenergic agonists” (Allergan, Inc., priority 2005, dated 2008).

Data set [1] concerns locomotor activity. Kind of data set: Sedation model, rats (locomotor/exploratory activity). In kind it is in vivo. To be noted: for rat locomotor activity: 30 min following dosing (FIG. 3). As to the method: (§1) The utility of alpha2-adrenergic agonists is limited by a range of side effects, particularly sedation and cardiovascular depression. The sedative activity of the compounds is assessed by measuring their ability to reduce the exploratory activity of mice and rats when placed in a dark chamber 30 min following dosing. The animal's activity is determined automatically by placing it in a digicom analyzer chamber (Omnitech Electronic). These chambers have photocells criss-crossing the box that are broken as the animal moves around. The computer analyzes this movement and records total activity over a 5-min time period. […] This represents greater than a 300-fold margin of safety (FIG. 4).

Data set [2] relates to locomotor activity. Kind of data set: Sedation model, mice (locomotor/exploratory activity). To be noted: oral dose of 3 mg/kg. The class given is in vivo. As to the method:
as §1

Data set [3] concerns the target T1, alpha2A receptor (Homo sapiens, UniProt P08913).
T1 construct: expressed in transfected cells; host or cells: NIH-3T3
T1 sequence (P08913 1-465): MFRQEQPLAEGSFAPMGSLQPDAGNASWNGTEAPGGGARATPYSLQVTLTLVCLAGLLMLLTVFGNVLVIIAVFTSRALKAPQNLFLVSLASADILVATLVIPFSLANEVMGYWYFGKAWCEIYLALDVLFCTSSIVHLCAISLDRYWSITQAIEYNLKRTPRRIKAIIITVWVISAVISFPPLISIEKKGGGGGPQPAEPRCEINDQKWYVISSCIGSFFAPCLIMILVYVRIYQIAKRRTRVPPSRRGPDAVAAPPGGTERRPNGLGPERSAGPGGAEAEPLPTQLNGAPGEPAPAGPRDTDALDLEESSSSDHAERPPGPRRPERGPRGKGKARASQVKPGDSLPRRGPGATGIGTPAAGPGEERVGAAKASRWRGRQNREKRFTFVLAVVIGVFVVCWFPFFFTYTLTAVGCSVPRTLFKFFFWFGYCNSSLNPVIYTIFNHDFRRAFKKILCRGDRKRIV
Description: Receptor Selection and Amplification Technology (RSAT) assay, α2A. As to conditions: relative to brimonidine (standard full agonist), NA = not active at concentrations less than 10 micromolar. The class given is cell-based. As to the method: (§2) Receptor Selection and Amplification Technology (RSAT) Assay
(§3) The RSAT assay measures a receptor-mediated loss of contact inhibition that results in selective proliferation of receptor-containing cells in a mixed population of confluent cells. The increase in cell number is assessed with an appropriate transfected marker gene such as β-galactosidase, the activity of which can be easily measured in a 96-well format. Receptors that activate the G protein, Gq, elicit this response. Alpha2 receptors, which normally couple to Gi, activate the RSAT response when coexpressed with a hybrid Gq protein that has a Gi receptor recognition domain, called Gq/i5.
(§4) NIH-3T3 cells are plated at a density of 2×10^6 cells in 15 cm dishes and maintained in Dulbecco's modified Eagle's medium supplemented with 10% calf serum. […] After washing with phosphate-buffered saline, β-galactosidase enzyme activity is determined by adding 200 μl of the chromogenic substrate (consisting of 3.5 mM o-nitrophenyl-β-D-galactopyranoside and 0.5% nonidet P-40 in phosphate buffered saline), incubating overnight at 30° C. and measuring optical density at 420 nm. The absorbance is a measure of enzyme activity, which depends on cell number and reflects a receptor-mediated cell proliferation. […]

Data set [4] concerns the target T2, alpha2B receptor (Homo sapiens, UniProt P18089).
T2 construct: expressed in transfected cells; host or cells: NIH-3T3
T2 sequence (P18089 1-450): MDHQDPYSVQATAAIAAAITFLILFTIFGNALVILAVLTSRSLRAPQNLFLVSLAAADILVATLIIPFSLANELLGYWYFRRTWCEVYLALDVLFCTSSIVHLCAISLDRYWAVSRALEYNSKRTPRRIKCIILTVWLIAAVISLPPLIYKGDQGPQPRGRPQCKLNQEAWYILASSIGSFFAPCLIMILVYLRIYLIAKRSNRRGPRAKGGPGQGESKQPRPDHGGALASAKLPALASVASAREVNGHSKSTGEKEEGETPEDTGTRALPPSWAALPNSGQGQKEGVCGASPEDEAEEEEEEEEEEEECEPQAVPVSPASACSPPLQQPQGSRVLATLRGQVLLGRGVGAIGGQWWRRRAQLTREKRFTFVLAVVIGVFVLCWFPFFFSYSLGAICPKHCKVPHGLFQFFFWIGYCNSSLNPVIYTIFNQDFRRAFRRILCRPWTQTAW
Kind of data set: Receptor Selection and Amplification Technology (RSAT) assay, α2B. To be noted: relative to brimonidine (standard full agonist), NA = not active at concentrations less than 10 micromolar. The class given is cell-based. As to the method:
as §2, §3, §4

In data set [5] the target is T3, alpha2C receptor (Homo sapiens, UniProt P18825).
T3 construct: expressed in transfected cells; host or cells: NIH-3T3
T3 sequence (P18825 1-462): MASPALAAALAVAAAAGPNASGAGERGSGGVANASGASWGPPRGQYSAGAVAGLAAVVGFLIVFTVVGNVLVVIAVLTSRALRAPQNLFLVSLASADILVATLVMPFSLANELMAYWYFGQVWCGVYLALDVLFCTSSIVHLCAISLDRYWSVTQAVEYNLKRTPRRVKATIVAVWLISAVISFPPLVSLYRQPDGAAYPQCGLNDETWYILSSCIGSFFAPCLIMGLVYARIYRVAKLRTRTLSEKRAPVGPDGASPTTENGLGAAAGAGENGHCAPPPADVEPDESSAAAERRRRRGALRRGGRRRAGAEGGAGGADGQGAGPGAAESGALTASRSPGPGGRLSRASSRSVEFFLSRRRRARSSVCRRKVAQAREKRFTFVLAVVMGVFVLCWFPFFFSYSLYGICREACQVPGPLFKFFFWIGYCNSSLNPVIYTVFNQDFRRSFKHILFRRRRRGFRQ
Description: Receptor Selection and Amplification Technology (RSAT) assay, α2C. As to conditions: relative to brimonidine (standard full agonist), NA = not active at concentrations less than 10 micromolar. In kind it is cell-based. As to the method:
as §2, §3, §4

For the compound `O=C(CC1CCCC1)OCC1=CCCC(Cc2c[nH]c(=S)[nH]2)C1` (stereo not drawn) [Compound 3, cyclopentyl-acetic acid 5-(2-thioxo-2,3-dihydro-1H-imidazol-4-ylmethyl)-cyclohex-1-enylmethyl ester], the “sedation, rats” value in data set [1] (oral dose of 3 mg/kg) is recorded as “did not sedate”. The “sedation, mice” value in data set [2] was “did not sedate”.
Regarding `OCC1=CCC[C@@H](Cc2c[nH]c(=S)[nH]2)C1` (single isomer, unassigned) [Compound 5], the “Intrinsic activity α2A” value in data set [3] was found to be 0.9. Further, in data set [4], the “Intrinsic activity α2B” value is listed as 1.0. In data set [5], the “Intrinsic activity α2C” value amounted to 1.1.
On to `OCC1=CCCC(Cc2c[nH]c(=S)[nH]2)C1` (stereo not drawn) [Compound 1, 4-(3-Hydroxymethyl-cyclohex-3-enylmethyl)-1,3-dihydro-imidazole-2-thione], for which the “sedation / locomotor activity, rats” value in data set [1] (general statement (FIG. 3)) is reported as “does not sedate”. Besides, the rat locomotor activity result in data set [1] (intraperitoneal doses up to at least 3 mg/kg) and in data set [1] (oral doses up to at least 10 mg/kg) was “did not decrease” in each case. In addition, the margin of safety in data set [1] (non-sedating dose in rats (ip 3 mg/kg, oral 10 mg/kg) versus active dose) is reported as ≥ 30 fold.
